Source: patent US20050090522A1 (priority 2001, published 2005)
Where two headings read alike, the source gives them in different places.

Test system: HIV-1
Experiment: HIV-1 single-round infectious luciferase reporter virus (pseudotype) assay in HeLa CD4 CCR5 cells
Format: cell-based
In short: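 Reporter pseudovirus produced in 293 cells infected HeLa cells expressing CD4/CCR5 at MOI ~0.01, with compound present at <10 μM final. Infection was quantified as luciferase luminescence after 72 h.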

[1] = Human immunodeficiency virus 1, HeLa-CD4/CCR5, read-out: EC50 Group from TABLE 1, HeLa CD4 CCR5 cells, single-round infectious luciferase reporter virus
[2] = Human immunodeficiency virus 1, HeLa-CD4/CCR5, read-out: EC50 Group from Table 1, Table 4, HeLa CD4 CCR5 cells, single-round luciferase reporter virus
[3] = Human immunodeficiency virus 1, HeLa-CD4/CCR5, read-out: EC50 Group from Table 1, Table 2-1, HeLa CD4 CCR5 cells, single-round luciferase reporter virus

Row | Structure (SMILES) | EC50 [1] [µM] | further results
1 | CC(C)(C)OC(=O)N1CCN(C(=O)C(=O)c2c[nH]c3c(-c4cnccn4)ncc(Cl)c23)CC1 [Example 165] | < 1 | 
2 | COc1ccc(-c2ccnc3c(C(=O)C(=O)N4CCN(C(=O)c5ccccc5)C[C@H]4C)c[nH]c23)cc1 [Example 67, 1-benzoyl-3-(R)-methyl-4-[(7-(4-methoxyphenyl)-4-azaindol-3-yl)oxoacetyl]piperazine] |  | EC50 [2]: < 1 µM
3 | COc1cnc(-c2cnc(O)cn2)c2[nH]cc(C(=O)C(=O)N3CCN(C(=O)c4ccccc4)CC3)c12 [Example 97, 1-(benzoyl)-4-[(4-methoxy-7-(2-hydroxyl-pyrazin-5-yl)-6-azaindol-3-yl)-oxoacetyl]piperazine] | < 1 | 
4 | COc1cnc(-c2cnccn2)c2[nH]cc(C(=O)C(=O)N3CCN(C(=O)c4ccno4)CC3)c12 [Example 196] | < 1 | 
5 | COc1cnc(-c2ccc(C(=O)O)o2)c2[nH]cc(C(=O)C(=O)N3CCN(C(=O)c4ccccc4)CC3)c12 [Example 87, 1-benzoyl-4-[(4-methoxy-7-(2-hydroxycarbonyl-furan-5-yl)-6-azaindol-3-yl)-oxoacetyl]piperazine] | < 1 | 
6 | O=C(C(=O)N1CCN(C(=O)c2ccccc2)CC1)c1c[nH]c2c(-c3ccc(Cl)cc3)nccc12 [Example 2, 1-benzoyl-4-[(7-(4-chlorophenyl)-6-azaindol-3-yl)-oxoacetyl]piperazine] | < 1 | 
7 | COc1cnc(-c2cnc(C3CC3)cn2)c2[nH]cc(C(=O)C(=O)N3CCN(C(=O)c4ccccn4)CC3)c12 [Example 181, 1-picolinoyl-4-[(4-methoxy-7-(2-cyclopropanyl-pyrazin-5-yl)-6-azaindol-3-yl)-oxoacetyl]piperazine] | < 1 | 
8 | CCNc1cnc(-c2ncc(OC)c3c(C(=O)C(=O)N4CCN(C(=O)c5ccccn5)CC4)c[nH]c23)cn1 [Example 179, 1-picolinoyl-4-[(4-methoxy-7-(2-ethylaminopyrazin-5-yl)-6-azaindol-3-yl)-oxoacetyl]piperazine] | < 1 | 
9 | COc1cnc(-c2cnc(-c3nccs3)s2)c2[nH]cc(C(=O)C(=O)N3CCN(C(=O)c4ccccc4)CC3)c12 [Example 92, 1-benzoyl-4-[(4-methoxy-7-(2-(thiazol-2-yl)-thiazol-5-yl)-6-azaindol-3-yl)-oxoacetyl]piperazine] | < 1 | 
10 | C[C@@H]1CN(C(=O)c2ccccc2)CCN1C(=O)C(=O)c1c[nH]c2c(-c3nccs3)nccc12 [Example 20, 1-benzoyl-3-(R)-methyl-4-[(7-(thiazol-2-yl)-6-azaindol-3-yl)oxoacetyl]piperazine] | < 1 | 
11 | C[C@@H]1CN(C(=O)c2ccccc2)CCN1C(=O)C(=O)c1c[nH]c2c(-c3cncc(O)n3)nccc12 [Example 121] | < 1 | 
12 | COc1cnc(-n2nccc2C)c2[nH]cc(C(=O)C(=O)N3CCN(C(=O)c4ccccc4)[C@H](C)C3)c12 [Example 242, (R)-1-benzoyl-2-methyl-4-[(4-methoxy-7-(5-methyl-pyrazol-1-yl)-6-azaindol-3-yl)-oxoacetyl]piperazine] |  | EC50 [3]: < 1 µM
13 | COc1cnc(-n2ccc(C(F)(F)F)n2)c2[nH]cc(C(=O)C(=O)N3CCN(C(=O)c4ccccc4)[C@H](C)C3)c12 [Example 244, (R)-1-benzoyl-2-methyl-4-[(4-methoxy-7-(3-trifluoromethyl-pyrazol-1-yl)-6-azaindol-3-yl)-oxoacetyl]piperazine] |  | EC50 [3]: < 1 µM
14 | COc1cnc(-c2cnc(N)cn2)c2[nH]cc(C(=O)C(=O)N3CCN(C(=O)c4ccccn4)[C@H](C)C3)c12 [Example 267] |  | EC50 [3]: < 1 µM
15 | C[C@@H]1CN(C(=O)c2ccccn2)CCN1C(=O)C(=O)c1c[nH]c2c(-c3cnc(N(C)C)cn3)nccc12 [Example 105, (R)-1-picolinoyl-3-methyl-4-[(7-(2-dimethylamino-pyrazin-5-yl)-6-azaindol-3-yl)-oxoacetyl]piperazine] | < 1 | 
16 | COc1cnc(-c2cncs2)c2[nH]cc(C(=O)C(=O)N3CCN(C(=O)c4ccccn4)CC3)c12 [Example 151, 1-picolinoyl-4-[(4-methoxy-7-(thiazol-5-yl)-6-azaindol-3-yl)-oxoacetyl]piperazine] | < 1 | 
17 | O=C(Nc1cccnc1)c1ncc(Cl)c2c(C(=O)C(=O)N3CCN(C(=O)c4ccccc4)CC3)c[nH]c12 [Example 152] | < 1 | 
18 | COc1cc(-c2ncc(OC)c3c(C(=O)C(=O)N4CCN(C(=O)c5ccccc5)CC4)c[nH]c23)nc(OC)n1 [Example 68, 1-benzoyl-4-[(4-methoxy-7-(2,6-dimethoxy-pyrimidin-4-yl)-6-azaindol-3-yl)-oxoacetyl]piperazine] | < 1 | 
19 | O=C(C(=O)N1CCN(C(=O)c2ccccc2)CC1)c1c[nH]c2c(-c3ccccn3)nccc12 [Example 19, 1-benzoyl-4-[(7-(pyridin-2-yl)-6-azaindol-3-yl)-oxoacetyl]piperazine] | < 1 | 

Row | Structure (SMILES) | EC50 [1] [µM] | further results
20 | O=C(C(=O)N1CCN(C(=O)c2ccccc2)CC1)c1c[nH]c2c(-c3cncnc3)nccc12 [Example 17, 1-benzoyl-4-[(7-(pyrimidin-5-yl)-6-azaindol-3-yl)-oxoacetyl]piperazine] | < 1 | 
21 | COc1cnc(-n2nnc3ccccc32)c2[nH]cc(C(=O)C(=O)N3CCN(C(=O)c4ccccc4)[C@H](C)C3)c12 [Example 246, (R)-1-benzoyl-2-methyl-4-[(4-methoxy-7-(1,2,3-benzotriazol-1-yl)-6-azaindol-3-yl)-oxoacetyl]piperazine] |  | EC50 [3]: < 1 µM
22 | COc1cnc(-n2ccc(C(O)C(C)C)n2)c2[nH]cc(C(=O)C(=O)N3CCN(C(=O)c4ccccc4)CC3)c12 (centres unmarked) [Example 284, 1-benzoyl-4-[(4-methoxy-7-(3-(1-hydroxy-2-methyl-propyl)-pyrazol-1-yl)-6-azaindol-3-yl)-oxoacetyl]piperazine] | < 1 | 
23 | COc1cnc(-n2ccc(C(C)(C)C)n2)c2[nH]cc(C(=O)C(=O)N3CCN(C(=O)c4ccccc4)[C@H](C)C3)c12 [Example 243, (R)-1-benzoyl-2-methyl-4-[(4-methoxy-7-(3-t-butyl-pyrazol-1-yl)-6-azaindol-3-yl)-oxoacetyl]piperazine] |  | EC50 [3]: < 1 µM
24 | CCOC(=O)c1cc(C)nn1-c1ncc(F)c2c(C(=O)C(=O)N3CCN(C(=O)c4ccccc4)CC3)c[nH]c12 [Example 311] | < 1 | 
25 | C[C@@H]1CN(C(=O)c2ccccc2)CCN1C(=O)C(=O)c1c[nH]c2c(-c3cnccn3)nccc12 [Example 33, 1-benzoyl-3-(R)-methyl-4-[(7-(pyrazin-2-yl)-6-azaindol-3-yl)-oxoacetyl]piperazine] | < 1 | 
26 | CC(C)Cc1ncc(-c2nccc3c(C(=O)C(=O)N4CCN(C(=O)c5ccccc5)CC4)c[nH]c23)s1 [Example 89, 1-benzoyl-4-[(7-(2-isobutyl-thiazol-5-yl)-6-azaindol-3-yl)-oxoacetyl]piperazine] | < 1 | 
27 | COc1cnc(-c2cc3ccccc3o2)c2[nH]cc(C(=O)C(=O)N3CCN(C(=O)c4ccccn4)CC3)c12 [Example 183, 1-picolinoyl-4-[(4-methoxy-7-(benzofuran-2-yl)-6-azaindol-3-yl)-oxoacetyl]piperazine] | < 1 | 
28 | CCc1ncc(-c2ncc(OC)c3c(C(=O)C(=O)N4CCN(C(=O)c5ccccc5)CC4)c[nH]c23)s1 [Example 88, 1-benzoyl-4-[(4-methoxy-7-(2-ethyl-thiazol-5-yl)-6-azaindol-3-yl)-oxoacetyl]piperazine] | < 1 | 
29 | COc1cnc(-c2nc(-c3cccc(Cl)c3)n[nH]2)c2[nH]cc(C(=O)C(=O)N3CCN(C(=O)c4ccccc4)[C@H](C)C3)c12 [Example 339] |  | EC50 [3]: < 1 µM
30 | CCCS(=O)(=O)c1ncn(-c2ncc(OC)c3c(C(=O)C(=O)N4CCN(C(=O)c5ccccc5)CC4)c[nH]c23)n1 [Example 290, 1-benzoyl-4-[(4-methoxy-7-(3-(propane-1-sulfonyl)-[1,2,4]triazol-1-yl)-6-azaindol-3-yl)-oxoacetyl]piperazine] | < 1 | 
31 | C[C@@H]1CN(C(=O)c2ccccc2)CCN1C(=O)C(=O)c1c[nH]c2c(-c3cncnc3)ccnc12 [Example 51, 1-benzoyl-3-(R)-methyl-4-[(7-(pyrimidin-5-yl)-4-azaindol-3-yl)-oxoacetyl]piperazine] |  | EC50 [2]: < 1 µM
32 | COc1cnc(-n2ccc(C3=CCCCC3)n2)c2[nH]cc(C(=O)C(=O)N3CCN(C(=O)c4ccccc4)CC3)c12 [Example 278, 1-benzoyl-4-[(4-methoxy-7-(3-(cyclohexen-1-yl)-pyrazol-1-yl)-6-azaindol-3-yl)-oxoacetyl]piperazine] | < 1 | 
33 | C[C@@H]1CN(C(=O)c2ccccc2)CCN1C(=O)C(=O)c1c[nH]c2nc(-c3nnn[nH]3)ccc12 [Example 56] |  | EC50 (Human immunodeficiency virus 1, HeLa-CD4/CCR5, 72 h, read-out: EC50 Group from Table 1, HeLa CD4 CCR5 cells, luciferase reporter virus, harvested 72 h after infection): 1 to 5 µM
34 | C[C@@H]1CN(C(=O)c2ccccc2)CCN1C(=O)C(=O)c1c[nH]c2c(-c3ccc(O)cn3)nccc12 [Example 124] | < 1 | 
35 | COc1ncn(-c2ncc(OC)c3c(C(=O)C(=O)N4CCN(C(=O)c5ccccc5)CC4)c[nH]c23)n1 [Example 291, 1-benzoyl-4-[(4-methoxy-7-(3-methoxy-[1,2,4]triazol-1-yl)-6-azaindol-3-yl)-oxoacetyl]piperazine] | < 1 | 
36 | COc1cnc(-c2nc(-c3cccnc3)n[nH]2)c2[nH]cc(C(=O)C(=O)N3CCN(C(=O)c4ccccc4)[C@H](C)C3)c12 [Example 338] |  | EC50 [3]: < 1 µM
37 | COc1cnc(-n2ccc(C(C)(C)O)n2)c2[nH]cc(C(=O)C(=O)N3CCN(C(=O)c4ccccc4)CC3)c12 [Example 247, 1-benzoyl-4-[(4-methoxy-7-(3-(1-hydroxyl-1-methylethyl)-pyrazol-1-yl)-6-azaindol-3-yl)-oxoacetyl]piperazine] | < 1 | 
38 | O=C(C(=O)N1CCN(C(=O)c2ccccc2)CC1)c1c[nH]c2c(-n3ccnc3)ncc(F)c12 [Example 218] | < 1 | 
